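Protocol summary: plate cells (96-well), add compound at 5 concentrations, incubate 48 h, interpolate endpoints linearly. At the TGI there is no net growth.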
How the values were obtained:
Experiment in all cases: NCI tumour cell line growth inhibition, 48 h
DMS 114 small cell lung = tested on: DMS 114 small cell lung
KM20L2 colon = tested on: KM20L2 colon
DMS 273 small cell lung = tested on: DMS 273 small cell lung
M19-MEL melanoma = tested on: M19-MEL melanoma
HOP-18 NSCLC = tested on: HOP-18 NSCLC
XF 498 CNS = tested on: XF 498 CNS
LXFL 529 NSCLC = tested on: LXFL 529 NSCLC
RXF-631 renal = tested on: RXF-631 renal
P388/ADR leukemia = tested on: P388/ADR leukemia
P388 leukemia = tested on: P388 leukemia
SN12K1 renal = tested on: SN12K1 renal

For `CCc1ccc(N=Cc2cc(OC)c(OC)c(OC)c2)cc1`, which TGI (DMS 114 small cell lung) is on record?
The TGI was 76.1 µM.

And the TGI (KM20L2 colon)?
The TGI was > 100 µM.

And the TGI (DMS 273 small cell lung)?
Its TGI is > 100 µM.

What about the TGI (M19-MEL melanoma) of the same molecule?
Its TGI is > 100 µM.

What about the TGI (HOP-18 NSCLC) of the same molecule?
Its TGI is > 100 µM.

What about the TGI (XF 498 CNS) of the same molecule?
Its TGI is > 100 µM.

And the TGI (LXFL 529 NSCLC)?
The TGI was > 100 µM.

With `CC1(C)CCC[C@@]2(C)C1CCC1(C)C(CCc3ccoc3)/C(=C/OS(=O)(=O)O)CCC12` (some centres undefined) (tested in a mixture with another compound) as the molecule, how does the TGI (DMS 114 small cell lung) read?
The TGI was > 100 µM.

What about the TGI (KM20L2 colon) of the same molecule?
The TGI was > 100 µM.

What about the TGI (DMS 273 small cell lung) of the same molecule?
Its TGI is > 100 µM.

What about the TGI (M19-MEL melanoma) of the same molecule?
Its TGI is > 100 µM.

And the TGI (HOP-18 NSCLC)?
The TGI was > 100 µM.

What about the TGI (RXF-631 renal) of the same molecule?
Its TGI is > 100 µM.

What about the TGI (XF 498 CNS) of the same molecule?
Its TGI is > 100 µM.

What about the TGI (LXFL 529 NSCLC) of the same molecule?
The TGI was > 100 µM.

With `CC(=O)OC12/C(=N/O)CCCCCC1c1ccccc12` (centres undefined) as the molecule, how does the TGI (DMS 114 small cell lung) read?
Its TGI is > 100 µM.

And the TGI (KM20L2 colon)?
Its TGI is > 100 µM.

And the TGI (DMS 273 small cell lung)?
Its TGI is > 100 µM.

What about the TGI (M19-MEL melanoma) of the same molecule?
Its TGI is > 100 µM.

What about the TGI (HOP-18 NSCLC) of the same molecule?
The TGI was > 100 µM.

What about the TGI (XF 498 CNS) of the same molecule?
Its TGI is > 100 µM.

What about the TGI (LXFL 529 NSCLC) of the same molecule?
The TGI was > 100 µM.

Which TGI (DMS 114 small cell lung) does the source give for `Cc1ccc(S(=O)(=O)c2c(N)c3nc4ccccc4n3c3nc4ccccc4nc23)cc1` here?
The TGI was > 100 µM.

What about the TGI (KM20L2 colon) of the same molecule?
The TGI was > 100 µM.

And the TGI (DMS 273 small cell lung)?
Its TGI is > 100 µM.

And the TGI (M19-MEL melanoma)?
The TGI was > 100 µM.

And the TGI (RXF-631 renal)?
The TGI was > 100 µM.

And the TGI (LXFL 529 NSCLC)?
The TGI was > 100 µM.

Which TGI (DMS 114 small cell lung) does the source give for `Cc1cc(N(CCC#N)CCC#N)ccc1/C=C1N=C(/C=C\c2ccccc2)OC\1=O` here?
The TGI was > 100 µM.

And the TGI (KM20L2 colon)?
The TGI was > 100 µM.

What about the TGI (DMS 273 small cell lung) of the same molecule?
Its TGI is > 100 µM.

And the TGI (M19-MEL melanoma)?
The TGI was > 100 µM.

And the TGI (HOP-18 NSCLC)?
Its TGI is > 100 µM.

What about the TGI (XF 498 CNS) of the same molecule?
Its TGI is > 100 µM.

And the TGI (LXFL 529 NSCLC)?
The TGI was > 100 µM.

For `C=C(CN(C)C)C(=O)c1ccccc1C`, which TGI (DMS 114 small cell lung) is on record?
Its TGI is 42.5 µM.

And the TGI (KM20L2 colon)?
Its TGI is > 100 µM.

What about the TGI (DMS 273 small cell lung) of the same molecule?
Its TGI is 75.8 µM.

And the TGI (M19-MEL melanoma)?
The TGI was 53.5 µM.

What about the TGI (HOP-18 NSCLC) of the same molecule?
Its TGI is > 52.4 µM.

What about the TGI (RXF-631 renal) of the same molecule?
The TGI was > 100 µM.

And the TGI (XF 498 CNS)?
Its TGI is > 75.6 µM.

And the TGI (LXFL 529 NSCLC)?
The TGI was 30.7 µM.

Which TGI (DMS 114 small cell lung) does the source give for `Cc1ccccc1C(=O)c1c(O)c2c(c(O)c1Br)CCCC2` here?
The TGI was 27.5 µM.

And the TGI (KM20L2 colon)?
The TGI was 41.4 µM.

And the TGI (DMS 273 small cell lung)?
Its TGI is 35.4 µM.

And the TGI (M19-MEL melanoma)?
The TGI was 29.4 µM.

What about the TGI (HOP-18 NSCLC) of the same molecule?
The TGI was 25.2 µM.

And the TGI (XF 498 CNS)?
The TGI was 36.6 µM.

And the TGI (LXFL 529 NSCLC)?
The TGI was 26.9 µM.

What does the source list for `COC1=C2CC(C)CC(OC)C(O)C(C)/C=C(\C)C(OC(N)=O)C(OC)/C=C\C=C(/C)C(=O)NC(=C(C=NC(C)(C)C)C1=O)C2=O` (centres undefined)?
TGI (DMS 114 small cell lung): 3.82 µM; TGI (P388/ADR leukemia): 62.5 µM; TGI (P388 leukemia): 8.79 µM; TGI (KM20L2 colon): 14.6 µM; TGI (DMS 273 small cell lung): 11.9 µM; TGI (M19-MEL melanoma): 15.6 µM; TGI (HOP-18 NSCLC): 33.7 µM; TGI (XF 498 CNS): 3.09 µM; TGI (SN12K1 renal): 31.2 µM
